Measured values published in article PMC7792806, “Development of Second Generation Activity-Based Chemical Probes for Sirtuins” (Molecules, 2020).

What was measured:
SIRT2 = target: T1, SIRT2 (Homo sapiens, UniProt Q8IXJ6); test: Sirtuin inhibition assay (HPLC), SIRT2; format: biochemical
T1 construct: SIRT2 (38-356); made in house
T1 sequence (Q8IXJ6 38-356): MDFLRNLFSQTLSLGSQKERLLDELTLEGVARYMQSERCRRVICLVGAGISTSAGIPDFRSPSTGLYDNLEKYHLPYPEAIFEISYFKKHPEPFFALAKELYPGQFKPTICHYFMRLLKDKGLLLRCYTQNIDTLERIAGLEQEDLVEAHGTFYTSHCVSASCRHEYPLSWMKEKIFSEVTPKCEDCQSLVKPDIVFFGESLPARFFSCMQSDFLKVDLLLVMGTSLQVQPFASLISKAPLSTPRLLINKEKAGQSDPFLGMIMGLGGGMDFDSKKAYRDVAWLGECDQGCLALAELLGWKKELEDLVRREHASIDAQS
Method: (§1) Plasmids of SIRT1 (full length), SIRT2 (38-356), SIRT3 (102-399), and SIRT5 (34-302) were generous gifts from Dr. Hening Lin (Cornell University, Ithaca, NY, USA). SIRT6 was a gift from Cheryl Arrowsmith (Addgene plasmid #28271). The proteins were expressed and purified according to previously published protocols. The identity of the protein was confirmed by tryptic digestion followed by LC-MS/MS analysis performed at the Vermont Genetic Network (VGN) Proteomics Facility. Protein concentrations were determined by Bradford assay (Thermo Fisher Scientific, Rockford, IL, USA).
(§2) A typical reaction contained 500 μM NAD^+ and 500 μM peptide substrate (H3K9Ac for SIRT2, SIRT3 and SIRT6, p53K382Ac for SIRT1 and SIRT5) of varying concentrations of a small molecule probe in 100 mM phosphate buffer pH 7.5. The reactions were initiated by the addition of 10 μM of sirtuin and were incubated at 37 °C before being quenched by 8 μL of 10% TFA. The incubation time was controlled so that the conversion of substrate was less than 15%. The samples were then injected on an HPLC fitted to a Macherey-Nagel Nucleosil C18 column. NAD^+, NAM and AADPR (acetyl-ADP-ribose) peaks were resolved using a gradient of 0 to 20% methanol in 20 mM ammonium acetate. Chromatograms were analyzed at 260 nm. Reactions were quantified by integrating areas of peaks corresponding to NAD^+ and AADPR. Rates were plotted as a function of small molecule probe concentration, and points were fitted to the following equation:ν(%) = ν0(%) − [ν0(%)(10^x)/(10^x + IC50)](1) where ν(%) represents the turnover rate expressed as percent enzymatic activity remaining, and ν0(%) represents the uninhibited turnover rate expressed as an enzymatic activity of 100%. The variable x represents the log[probe] in nanomolar. IC50 values were derived from this equation.

SIRT5 = target: T2, SIRT5 (Homo sapiens, UniProt Q9NXA8); test: Sirtuin inhibition assay (HPLC), SIRT5; format: biochemical
T2 construct: SIRT5 (34-302); made in house
T2 sequence (Q9NXA8 34-302): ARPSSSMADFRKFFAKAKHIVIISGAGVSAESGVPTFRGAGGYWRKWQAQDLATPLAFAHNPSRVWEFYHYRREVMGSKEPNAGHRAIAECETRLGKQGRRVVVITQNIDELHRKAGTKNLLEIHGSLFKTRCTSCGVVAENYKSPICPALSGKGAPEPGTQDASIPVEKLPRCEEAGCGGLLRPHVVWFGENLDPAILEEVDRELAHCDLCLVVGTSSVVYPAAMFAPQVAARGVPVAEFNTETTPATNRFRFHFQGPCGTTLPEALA
Method: as §1, §2

SIRT3 = target: T3, SIRT3 (Homo sapiens, UniProt Q9NTG7); test: Sirtuin inhibition assay (HPLC), SIRT3; format: biochemical; settings: substrate H3K9Ac; 500 μM NAD+, 500 μM peptide, 10 μM sirtuin, pH 7.5, 37 °C
T3 construct: SIRT3 (102-399); made in house
T3 sequence (Q9NTG7 102-399): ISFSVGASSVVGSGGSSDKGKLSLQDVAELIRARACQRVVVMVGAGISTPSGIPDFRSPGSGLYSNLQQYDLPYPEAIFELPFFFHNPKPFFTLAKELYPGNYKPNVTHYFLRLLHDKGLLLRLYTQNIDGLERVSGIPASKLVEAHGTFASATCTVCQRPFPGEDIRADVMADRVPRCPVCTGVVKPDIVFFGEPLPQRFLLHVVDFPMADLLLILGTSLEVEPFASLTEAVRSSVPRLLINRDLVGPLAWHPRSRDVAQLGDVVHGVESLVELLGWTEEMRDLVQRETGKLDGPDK
Method: as §1, §2

[1] = test system: SIRT1, SIRT2, SIRT3, SIRT5, and SIRT6; test: Labeling in recombinant sirtuin mixture, isoform selectivity; format: biochemical, human
Method: Figure 4 Labeling of SIRT5 by probe 2B. (A) Dose-dependent labeling of SIRT5 by probe 2B in recombinantly expressed, partially purified sirtuin mixture. SIRT1, SIRT2, SIRT3, SIRT5, and SIRT6 were mixed and incubated with 500 μM NAD^+ and increasing concentrations of 2B. The samples were incubated at 37 °C for 10 min and subjected to UV irradiation for 20 min, and then “click” conjugated to TAMRA-azide; (B) Chemical structure of H3K9Suc; (C) Peptide competition. The labeling of SIRT5 by probe 2B decreased with increasing concentrations of the competitor peptide, H3K9Suc.
Remarkably, probe 2C was also able to label individual sirtuin isoforms in cell lysates. HEK293 cells overexpressing human SIRT2 were lysed, and the lysate was subjected to the labeling by 10 μM probe 2C.
A typical labeling experiment was performed as follows: in a 0.7 mL Eppendorf tube, purified recombinant human sirtuin (10 μM) was incubated with NAD^+ (500 μM) and activity-based probe at 37 °C for 10 min. The sample was transferred to a clear-bottom 96-well plate, placed on ice, and irradiated at 365 nm with a UV-lamp in a cold room. […] Then, destained gel was analyzed with in-gel fluorescence scanning using a Biorad ChemiDoc MP imager (excitation 532 nm, 580 nm cut-off filter and 30 nm band-pass). […]

IC50 (SIRT2; substrate H3K9Ac, 500 μM NAD+, 500 μM peptide, 10 μM sirtuin, pH 7.5, 37 °C) | increase of SIRT5 inhibition compared with 1B (SIRT5; ratio of IC50s) | IC50 (SIRT3) | increase of SIRT2 inhibition compared with 1C (SIRT2; ratio of IC50s) | selectivity for SIRT2 over SIRT6 (SIRT2; ratio of IC50s) | IC50 (SIRT5; substrate p53K382Ac, 500 μM NAD+, 500 μM peptide, 10 μM sirtuin, pH 7.5, 37 °C, NI = Not inhibited) | Structure (SMILES) | labeling of other sirtuin isoforms in sirtuin mixture ([1]; partially purified recombinant sirtuin mixture) | isoforms labeled in sirtuin mixture [1]
> 5 mM | ~1.7 fold | > 5 mM |  |  |  | C#CCCCC1(CCC(=O)N[C@@H](CCCCNC(=S)CCC(=O)O)C(=O)N[C@@H](C)C(=O)N[C@@H](C)C(=O)OC)N=N1 [Probe 2B] | negligible labeling of the other sirtuin isoforms | 
 |  | > 2 mM | 3 fold | ~2 fold | > 5 mM | C#CCCCC1(CCC(=O)N[C@@H](CCCCNC(=S)CCCCCCCCCCCCC)C(=O)N[C@@H](C)C(=O)N[C@@H](C)C(=O)OC)N=N1 [Probe 2C] |  | highlighting SIRT1, SIRT2, and SIRT6
